# From US4108991A, “N-aminosulfenyl derivatives of aldicarb” (priority 1976, dated 1978)
# Key:
# [1] = tested on: Mexican bean beetle; experiment: Initial contact activity, leaf dip, Mexican bean beetle; format: in vivo, Epilachna varivestis Muls.; details: Epilachna varivestis, foliar, 48 h, initial, BB, 48 hours, read-out: Percent Kill
# Experimental: (§1) Initial Contact Activity: One half gram of test compound was dissolved in 40 ml of acetone and this solution was dispersed in 360 ml of water containing one drop of isooctylphenyl polyethoxyethanol. Aliquots of this solution, which corresponds to 1250 ppm of active ingredient, were diluted with an appropriate amount of water to provide solutions containing various concentrations of active ingredient. Test organisms and techniques were as follows: The activity against the Mexican bean beetle (Epilachna varivestis Muls.) and the southern armyworm (Spodoptera eridania [Cram.]) was evaluated by dipping the leaves of pinto bean plants into the test solution and infesting the leaves with the appropriate immature-form insects when the foiliage had dried; the activity against the pea aphid (Acyrthosiphon pisum [Harris]) was evaluated on broad bean plants whose leaves were dipped before infestation with adult aphids; the activity against two-sotted spider mites (Tetranychus urticae Koch) was evaluated on pinto bean plants whose leaves were dipped after infestation with adult mites; the activity against the milkweed bug (Oncopeltus fasciatus [Dallas]), and the plum curculio (Conotrachelus nenuphar [Herbst]) was evaluated by spraying the test solutions into glass dishes or jars containing the adult insects; the activity against the confused flour beetle (Tribolium confusum duVal) was evaluated by introducing the insects into glass dishes which had been previously sprayed with test solution and allowed to dry. All organisms in the test were maintained in a holding room at 80° F and 50% relative humidity for an exposure period of 48 hours. At the end of this time, the dead and living insects or mites were counted, and the percent kill was calculated.
# [2] = tested on: Pea aphid; experiment: Initial contact activity, leaf dip, pea aphid; format: in vivo, Acyrthosiphon pisum [Harris]; details: Acyrthosiphon pisum, foliar, 48 h, initial, PA, 48 hours, read-out: Percent Kill
# Experimental: as §1
# [3] = tested on: Two-spotted spider mite; experiment: Initial contact activity, leaf dip, two-spotted spider mite; format: in vivo, Tetranychus urticae Koch; details: Tetranychus urticae, foliar, 48 h, initial, SM, 48 hours, read-out: Percent Kill
# Experimental: as §1
# [4] = tested on: Milkweed bug; experiment: Initial contact activity, spray, milkweed bug; format: in vivo, Oncopeltus fasciatus [Dallas]; details: Oncopeltus fasciatus, 48 h, initial, MWB, 48 hours, read-out: Percent Kill
# Experimental: as §1
# [5] = tested on: Plum curculio; experiment: Initial contact activity, spray, plum curculio; format: in vivo, Conotrachelus nenuphar [Herbst]; details: Conotrachelus nenuphar, initial, PC, 48 hours, read-out: Percent Kill
# Experimental: as §1
# [6] = tested on: Granary Weevil; experiment: Initial contact activity, granary weevil; format: in vivo; details: Sitophilus granarius, 48 h, initial, GW, 48 hours, read-out: Percent Kill
# [7] = tested on: Confused flour beetle; experiment: Initial contact activity, sprayed dishes, confused flour beetle; format: in vivo, Tribolium confusum duVal; details: Tribolium confusum, initial, FB, 48 hours, read-out: Percent Kill
# Experimental: as §1
# [8] = tested on: Mexican bean beetle; experiment: Residual (7-day) contact activity, Mexican bean beetle; format: in vivo, Epilachna varivestis Muls.; details: Epilachna varivestis, 168 h; for mortality at 312 ppm / mortality at 1250 ppm: residual 7-day, BB, read-out: Percent Kill
# Experimental: as §1
# (§2) Residual Contact Activity: The residual contact activity of the compounds was determined on the same organisms using the techniques described above, except that in each case the treated surface was allowed to dry and was exposed to normal light and air for seven days before introduction of the mites or insects.
# [9] = tested on: Pea aphid; experiment: Residual (7-day) contact activity, pea aphid; format: in vivo, Acyrthosiphon pisum [Harris]; details: Acyrthosiphon pisum, 168 h
# Experimental: as §1, §2
# [10] = tested on: Plum curculio; experiment: Residual (7-day) contact activity, plum curculio; format: in vivo, Conotrachelus nenuphar [Herbst]; details: Conotrachelus nenuphar, 168 h, read-out: Percent Kill
# Experimental: as §1, §2
# [11] = tested on: Granary Weevil; experiment: Residual (7-day) contact activity, granary weevil; format: in vivo; details: Sitophilus granarius, 168 h, residual 7-day, GW, read-out: Percent Kill
# [12] = tested on: Confused flour beetle; experiment: Residual (7-day) contact activity, confused flour beetle; format: in vivo, Tribolium confusum duVal; details: Tribolium confusum, 168 h, residual 7-day, FB, read-out: Percent Kill
# Experimental: as §1, §2
# [13] = tested on: Mexican bean beetle; experiment: Systemic activity, soil-watering, Mexican bean beetle; format: in vivo, Epilachna varivestis Muls.; details: Epilachna varivestis, 48 h, systemic, BB, read-out: Percent Kill
# Experimental: as §1
# (§3) Systemic Activity: Systemic activity was measured using a soil-watering technique. Test organisms were Mexican bean beetle, southern armyworm, pea aphid, and mites on plants as described above in this Example. With appropriate precautions to avoid contact of the solution with the test plant surfaces, 25 ml of a test solution, prepared as above to contain the desired amount of active ingredient, were poured evenly over the surface of the soil in which the plant was growing. The treated plants were maintained under normal growing conditions for three days to permit translocation of the toxicant, after which the leaves were infested. Two days after infestation, counts of living and dead insects were made.
# [14] = tested on: Pea aphid; experiment: Systemic activity, soil-watering, pea aphid; format: in vivo, Acyrthosiphon pisum [Harris]; details: Acyrthosiphon pisum, 48 h, systemic, PA, read-out: Percent Kill
# Experimental: as §1, §3
# [15] = tested on: Southern armyworm; experiment: Systemic activity, soil-watering, southern armyworm; format: in vivo, Spodoptera eridania [Cram.]; details: Spodoptera eridania, 48 h, systemic, AW, read-out: Percent Kill
# Experimental: as §1, §3
# [16] = tested on: Two-spotted spider mite; experiment: Systemic activity, soil-watering, two-spotted spider mite; format: in vivo, Tetranychus urticae Koch; details: Tetranychus urticae, 48 h, systemic, SM, read-out: Percent Kill
# Experimental: as §1, §3
# [17] = residual 7-day, PA, read-out: Percent Kill
smiles,measurement,setting,value
"CCCCN(CCCC)SN(C)C(=O)ON=CC(C)(C)SC [Example III, 2-methyl-2-(methylthio)propanal O-[(dibutylaminosulfenyl)(methyl)carbamoyl]oxime]",mortality at 156 ppm,[1],40%
same,mortality at 312 ppm,[1]; 312 PPM,63%
same,mortality at 625 ppm,[1]; 625 PPM,95%
same,mortality at 1250 ppm,[1],100%
same,mortality at 10 ppm,[2]; 10 PPM,53%
same,mortality at 39 ppm,[2],19%
same,mortality at 156 ppm,[2],100%
same,mortality at 1250 ppm,[2],100%
same,mortality at 10 ppm,[3],98%
same,mortality at 39 ppm,[3],89%
same,mortality at 156 ppm,[3],100%
same,mortality at 1250 ppm,[3],100%
same,mortality at 10 ppm,[4],5%
same,mortality at 39 ppm,[4]; 39 PPM,16%
same,mortality at 156 ppm,[4]; 156 PPM,100%
same,mortality at 1250 ppm,[4],100%
same,mortality at 10 ppm,[5]; 10 PPM,0%
same,mortality at 39 ppm,[5]; 39 PPM,5%
same,mortality at 156 ppm,[5]; 156 PPM,0%
same,mortality at 1250 ppm,[5]; 1250 PPM,55%
same,mortality at 156 ppm,[6],100%
same,mortality at 312 ppm,[6]; 312 PPM,100%
same,mortality at 1250 ppm,[6],100%
same,mortality at 156 ppm,[7]; 156 PPM,0%
same,mortality at 312 ppm,[7]; 312 PPM,7.5%
same,mortality at 1250 ppm,[7]; 1250 PPM,70%
same,mortality at 312 ppm,[8],0%
same,mortality at 1250 ppm,[8],92%
same,mortality at 156 ppm,"[9]; residual 7-day, PA, 156 PPM, read-out: Percent Kill",0%
same,mortality at 312 ppm,[9]; [17],0%
same,mortality at 1250 ppm,[9]; [17],0%
same,mortality at 156 ppm,"[10]; residual 7-day, PC, 156 PPM",5%
same,mortality at 312 ppm,"[10]; residual 7-day, PC, 312 PPM",9.5%
same,mortality at 1250 ppm,"[10]; residual 7-day, PC",5%
same,mortality at 312 ppm,[11]; 312 PPM,0%
same,mortality at 1250 ppm,[11]; 1250 PPM,17%
same,mortality at 312 ppm,[12]; 312 PPM,0%
same,mortality at 1250 ppm,[12]; 1250 PPM,0%
same,mortality at 39 ppm,[13],20%
same,mortality at 156 ppm,[13]; 156 PPM,100%
same,mortality at 10 ppm,[14],0%
same,mortality at 39 ppm,[14]; 39 PPM,64%
same,mortality at 312 ppm,[15],0%
same,mortality at 625 ppm,[15]; 625 PPM,68%
same,mortality at 2.5 ppm,[16]; 2.5 PPM,0.9%
same,mortality at 5 ppm,[16],0%
same,mortality at 10 ppm,[16]; 10 PPM,0.7%
"CSC(C)(C)C=NOC(=O)N(C)SN(C)C [Example IV, 2-Methyl-2-(methylthio)propanal O-[(dimethylaminosulfenyl)-(methyl)carbamoyl]oxime]",mortality at 20 ppm,[1]; 20 PPM,5%
same,mortality at 39 ppm,[1]; 39 PPM,6%
same,mortality at 156 ppm,[1],39%
same,mortality at 1250 ppm,[1],100%
same,mortality at 20 ppm,[2]; 20 PPM,0%
same,mortality at 39 ppm,[2],5%
same,mortality at 156 ppm,[2],95%
same,mortality at 1250 ppm,[2],100%
same,mortality at 5 ppm,[3]; 5 PPM,17%
same,mortality at 10 ppm,[3],36%
same,mortality at 20 ppm,[3]; 20 PPM,83%
same,mortality at 39 ppm,[3],100%
same,mortality at 156 ppm,[3],0%
same,mortality at 1250 ppm,[3],100%
same,mortality at 5 ppm,[4]; 5 PPM,20%
same,mortality at 10 ppm,[4],26%
same,mortality at 20 ppm,[4]; 20 PPM,43%
same,mortality at 1250 ppm,[4],100%
same,mortality at 20 ppm,[6]; 20 PPM,0%
same,mortality at 39 ppm,[6]; 39 PPM,5%
same,mortality at 156 ppm,[6],50%
same,mortality at 1250 ppm,[6],100%
same,mortality at 625 ppm,"[8]; read-out: Percent Kill, residual 7-day, BB, 625 PPM",40%
same,mortality at 312 ppm,[8],17%
same,mortality at 1250 ppm,[8],50%
same,mortality at 625 ppm,"[9]; read-out: Percent Kill, residual 7-day, PA, 625 PPM",5%
same,mortality at 312 ppm,[9]; [17],10%
same,mortality at 1250 ppm,[9]; [17],5%
same,mortality at 625 ppm,[10],0%
same,mortality at 1250 ppm,"[10]; residual 7-day, PC",0%
same,mortality at 39 ppm,[13],100%
same,mortality at 312 ppm,[13]; 312 PPM,100%
same,mortality at 5 ppm,[14]; 5 PPM,100%
same,mortality at 10 ppm,[14],100%
same,mortality at 312 ppm,[14]; 312 PPM,100%
same,mortality at 39 ppm,[15]; 39 PPM,0%
same,mortality at 312 ppm,[15],100%
same,mortality at 5 ppm,[16],100%
same,mortality at 39 ppm,[16]; 39 PPM,100%
same,mortality at 312 ppm,[16]; 312 PPM,100%
